Source: PubChem BioAssay (NCI)
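Following 48 hours of exposure in 96-well plates, responses at five concentrations were used to interpolate endpoints linearly. GI50 = concentration required for 50% inhibition of growth. TGI: total growth inhibition.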

Columns and labels:
Assay in all cases: growth of human tumour cells (NCI), 48 h
CCRF-CEM leukemia = system: CCRF-CEM leukemia
MCF7 breast = system: MCF7 breast
NCI-H23 lung = system: NCI-H23 lung
NCI-H226 lung = system: NCI-H226 lung
SW-620 colon = system: SW-620 colon
HOP-62 NSCLC = system: HOP-62 NSCLC
HCT-15 colon = system: HCT-15 colon
OVCAR-3 ovarian = system: OVCAR-3 ovarian
MDA-MB-231 breast = system: MDA-MB-231 breast
SF-268 CNS = system: SF-268 CNS
HCC-2998 colon = system: HCC-2998 colon
K-562 leukemia = system: K-562 leukemia
OVCAR-8 ovarian = system: OVCAR-8 ovarian
KM12 colon = system: KM12 colon
786-0 renal = system: 786-0 renal
MDA-MB-468 breast = system: MDA-MB-468 breast
SR leukemia = system: SR leukemia
SNB-75 CNS = system: SNB-75 CNS
NCI-H522 lung = system: NCI-H522 lung
MOLT-4 leukemia = system: MOLT-4 leukemia
HCT-116 colon = system: HCT-116 colon
SK-MEL-2 melanoma = system: SK-MEL-2 melanoma
HOP-92 NSCLC = system: HOP-92 NSCLC
UACC-62 melanoma = system: UACC-62 melanoma
OVCAR-5 ovarian = system: OVCAR-5 ovarian
SN12C renal = system: SN12C renal
IGROV1 ovarian = system: IGROV1 ovarian
HS 578T breast = system: HS 578T breast
TK-10 renal = system: TK-10 renal
M14 melanoma = system: M14 melanoma
RPMI-8226 leukemia = system: RPMI-8226 leukemia
A549 NSCLC = system: A549 NSCLC
MALME-3M melanoma = system: MALME-3M melanoma
SF-539 CNS = system: SF-539 CNS
SK-MEL-5 melanoma = system: SK-MEL-5 melanoma
SNB-19 CNS = system: SNB-19 CNS
RXF 393 renal = system: RXF 393 renal
A498 renal = system: A498 renal
HL-60(TB) leukemia = system: HL-60(TB) leukemia
ACHN renal = system: ACHN renal
BT-549 breast = system: BT-549 breast
SF-295 CNS = system: SF-295 CNS
COLO 205 colon = system: COLO 205 colon
T-47D breast = system: T-47D breast
HT29 colon = system: HT29 colon
MDA-MB-435 = system: MDA-MB-435
SK-OV-3 ovarian = system: SK-OV-3 ovarian
NCI-H460 lung = system: NCI-H460 lung
LOX IMVI melanoma = system: LOX IMVI melanoma
DU-145 prostate = system: DU-145 prostate
EKVX NSCLC = system: EKVX NSCLC
U251 CNS = system: U251 CNS
CAKI-1 renal = system: CAKI-1 renal
UACC-257 melanoma = system: UACC-257 melanoma
PC-3 prostate = system: PC-3 prostate
UO-31 renal = system: UO-31 renal
SK-MEL-28 melanoma = system: SK-MEL-28 melanoma
OVCAR-4 ovarian = system: OVCAR-4 ovarian

CSc1ccc(NC(=O)c2ccc3nnn(/C(C#N)=C/c4ccccn4)c3c2)cc1
GI50 (CCRF-CEM leukemia): 1380 nM
TGI (CCRF-CEM leukemia): 8010 nM
GI50 (MCF7 breast): 1010 nM
TGI (MCF7 breast): 2510 nM
GI50 (NCI-H23 lung): 1590 nM
TGI (NCI-H23 lung): 2970 nM
GI50 (NCI-H226 lung): 2290 nM
TGI (NCI-H226 lung): 6140 nM
GI50 (SW-620 colon): 763 nM
TGI (SW-620 colon): 2140 nM
GI50 (HOP-62 NSCLC): 2210 nM
TGI (HOP-62 NSCLC): 5630 nM
GI50 (HCT-15 colon): 1040 nM
TGI (HCT-15 colon): 2300 nM
GI50 (OVCAR-3 ovarian): 1220 nM
TGI (OVCAR-3 ovarian): 2540 nM
GI50 (MDA-MB-231 breast): 1750 nM
TGI (MDA-MB-231 breast): 3210 nM
GI50 (SF-268 CNS): 2470 nM
TGI (SF-268 CNS): 7060 nM
GI50 (HCC-2998 colon): 1650 nM
TGI (HCC-2998 colon): 3010 nM
GI50 (K-562 leukemia): 1230 nM
TGI (K-562 leukemia): > 100000 nM
GI50 (OVCAR-8 ovarian): 1750 nM
TGI (OVCAR-8 ovarian): 3680 nM
GI50 (KM12 colon): 1600 nM
TGI (KM12 colon): 3270 nM
GI50 (786-0 renal): 1570 nM
TGI (786-0 renal): 3050 nM
GI50 (MDA-MB-468 breast): 904 nM
TGI (MDA-MB-468 breast): 2280 nM
GI50 (SR leukemia): 1650 nM
TGI (SR leukemia): 34400 nM
GI50 (SNB-75 CNS): 1820 nM
TGI (SNB-75 CNS): 4380 nM
GI50 (NCI-H522 lung): 1250 nM
TGI (NCI-H522 lung): 2650 nM
GI50 (MOLT-4 leukemia): 1830 nM
TGI (MOLT-4 leukemia): 8330 nM
GI50 (HCT-116 colon): 1740 nM
TGI (HCT-116 colon): 3550 nM
GI50 (SK-MEL-2 melanoma): 1710 nM
TGI (SK-MEL-2 melanoma): 3220 nM
GI50 (HOP-92 NSCLC): 1500 nM
TGI (HOP-92 NSCLC): 3200 nM
GI50 (UACC-62 melanoma): 1610 nM
TGI (UACC-62 melanoma): 3050 nM
GI50 (OVCAR-5 ovarian): 1600 nM
TGI (OVCAR-5 ovarian): 3020 nM
GI50 (SN12C renal): 1780 nM
TGI (SN12C renal): 3510 nM
GI50 (IGROV1 ovarian): 1870 nM
TGI (IGROV1 ovarian): 3570 nM
GI50 (HS 578T breast): 2070 nM
TGI (HS 578T breast): 4960 nM
GI50 (TK-10 renal): 1570 nM
TGI (TK-10 renal): 2980 nM
GI50 (M14 melanoma): 1670 nM
TGI (M14 melanoma): 3270 nM
GI50 (RPMI-8226 leukemia): 1460 nM
TGI (RPMI-8226 leukemia): 4700 nM
GI50 (A549 NSCLC): 2910 nM
TGI (A549 NSCLC): 11000 nM
GI50 (MALME-3M melanoma): 1570 nM
TGI (MALME-3M melanoma): 2960 nM
GI50 (SF-539 CNS): 1610 nM
TGI (SF-539 CNS): 2970 nM
GI50 (SK-MEL-5 melanoma): 1640 nM
TGI (SK-MEL-5 melanoma): 3050 nM
GI50 (SNB-19 CNS): 2740 nM
TGI (SNB-19 CNS): 8650 nM
GI50 (RXF 393 renal): 1320 nM
TGI (RXF 393 renal): 2600 nM
GI50 (A498 renal): 9470 nM
TGI (A498 renal): 21400 nM
GI50 (HL-60(TB) leukemia): 1590 nM
TGI (HL-60(TB) leukemia): 7080 nM
GI50 (ACHN renal): 1690 nM
TGI (ACHN renal): 3060 nM
GI50 (BT-549 breast): 1610 nM
TGI (BT-549 breast): 3130 nM
GI50 (SF-295 CNS): 1880 nM
TGI (SF-295 CNS): 4660 nM
GI50 (COLO 205 colon): 1110 nM
TGI (COLO 205 colon): 2390 nM
GI50 (T-47D breast): 1330 nM
TGI (T-47D breast): 3060 nM
GI50 (HT29 colon): 1890 nM
TGI (HT29 colon): 3890 nM
GI50 (MDA-MB-435): 1460 nM
TGI (MDA-MB-435): 2920 nM
GI50 (SK-OV-3 ovarian): 5490 nM
TGI (SK-OV-3 ovarian): 18000 nM
GI50 (NCI-H460 lung): 1930 nM
TGI (NCI-H460 lung): 4590 nM
GI50 (LOX IMVI melanoma): 879 nM
TGI (LOX IMVI melanoma): 2120 nM
GI50 (DU-145 prostate): 1630 nM
TGI (DU-145 prostate): 2990 nM
GI50 (EKVX NSCLC): 1590 nM
TGI (EKVX NSCLC): 3000 nM
GI50 (U251 CNS): 1560 nM
TGI (U251 CNS): 3050 nM
GI50 (CAKI-1 renal): 1200 nM
TGI (CAKI-1 renal): 2460 nM
GI50 (UACC-257 melanoma): 1600 nM
TGI (UACC-257 melanoma): 3070 nM
GI50 (PC-3 prostate): 2040 nM
TGI (PC-3 prostate): 4370 nM
GI50 (UO-31 renal): 1350 nM
TGI (UO-31 renal): 2640 nM
GI50 (SK-MEL-28 melanoma): 1480 nM
TGI (SK-MEL-28 melanoma): 2820 nM
GI50 (OVCAR-4 ovarian): 1640 nM
TGI (OVCAR-4 ovarian): 3010 nM
